Measurements published in ChEMBL document CHEMBL5252571, “Substitution to hydrophobic linker and formation of host-guest complex enhanced the effect of synthetic transcription factor made of pyrrole-imidazole polyamide” (Bioorg Med Chem, 2023).
Activity calls are given as the source filed them. The rule behind the calls is not given here.

How the values were obtained:
GM15850 [1] = assay: Induction of FRDA expression in human GM15850 cells derived from Friedreich's ataxia patient assessed as increase in FXN transcription incubated for 24 hrs by RT-PCR analysis; format: functional, cell-based
GM15850 [2] = assay: Protective activity against human GM15850 cells derived from Friedreich's ataxia patient assessed as decrease in cytotoxicity at 1 uM incubated for 48 hrs in presence of 0.2 to 10 mM 2-hydroxypropyl-beta-cyclodextrin adjuvant by cell count reagent SF based colorimetric assay; format: functional
GM15850 [3] = assay: Induction of FRDA expression in human GM15850 cells derived from Friedreich's ataxia patient assessed as increase in FXN transcription at 100 to 300 nM incubated for 24 hrs by RT-PCR analysis; format: functional, cell-based; details: dose 100-300 nM
GM15850 [4] = assay: Induction of FRDA expression in human GM15850 cells derived from Friedreich's ataxia patient assessed as increase in FXN transcription at 100 to 1000 nM incubated for 24 hrs in presence of 1.0 to 2.5 mM 2-hydroxypropyl-beta-cyclodextrin adjuvant by RT-PCR analysis; format: functional, cell-based; details: dose 100-1000 nM
GM15850 [5] = assay: Protective activity against human GM15850 cells derived from Friedreich's ataxia patient assessed as decrease in cytotoxicity at 1 uM incubated for 48 hrs in presence of 1 mM 2-hydroxypropyl-beta-cyclodextrin adjuvant by cell count reagent SF based colorimetric assay; format: functional
[6] = Aqueous solubility of compound incubated for 20 mins by HPLC analysis; format: physicochemical; details: buffer
GM15850 [7] = assay: Induction of FRDA expression in human GM15850 cells derived from Friedreich's ataxia patient assessed as increase in FXN transcription at >300 nM incubated for 24 hrs by RT-PCR analysis; format: functional, cell-based
GM15850 [8] = assay: Cytotoxicity against human GM15850 cells derived from Friedreich's ataxia patient assessed as decrease in cell viability at >300 nM incubated for 48 hrs by cell count reagent SF based colorimetric assay; format: toxicity; details: gm15850, 48 h, 0.3 µM

Row | solubility [6] | Structure (SMILES) | Activity (GM15850 [1]) | Activity (GM15850 [2]) | Activity (GM15850 [3]) | Activity (GM15850 [4]) | Activity (GM15850 [5]) | Activity (GM15850 [7]) | Activity (GM15850 [8])
1 | – | Cc1sc2c(c1C)C(c1ccc(Cl)cc1)=N[C@@H](CC(=O)NCCOCCOCCOCCOCCOCCOCCC(=O)NCCCN(C)CCCNC(=O)CCNC(=O)c1nc(NC(=O)CCNC(=O)c3cc(NC(=O)c4nc(NC(=O)CCNC(=O)c5cc(NC(=O)c6nc(NC(=O)CCCN(C)C)cn6C)cn5C)cn4C)cn3C)cn1C)c1nnc(C)n1-2 | inactive | – | – | – | – | – | –
2 | Soluble | Cc1sc2c(c1C)C(c1ccc(Cl)cc1)=N[C@@H](CC(=O)NCCOCCOCCOCCOCCOCCOCCC(=O)NCCCCCCCNC(=O)CCNC(=O)c1nc(NC(=O)CCNC(=O)c3cc(NC(=O)c4nc(NC(=O)CCNC(=O)c5cc(NC(=O)c6nccn6C)cn5C)cn4C)cn3C)cn1C)c1nnc(C)n1-2 | – | inactive | Active | inactive | Active | inactive | Toxic
3 | Soluble | Cc1sc2c(c1C)C(c1ccc(Cl)cc1)=N[C@@H](CC(=O)NCCOCCOCCOCCOCCOCCOCCC(=O)NCCCN(C)CCCNC(=O)CCNC(=O)c1nc(NC(=O)CCNC(=O)c3cc(NC(=O)c4nc(NC(=O)CCNC(=O)c5cc(NC(=O)c6nccn6C)cn5C)cn4C)cn3C)cn1C)c1nnc(C)n1-2 | Active | – | Active | – | – | – | –
4 | – | Cc1sc2c(c1C)C(c1ccc(Cl)cc1)=N[C@@H](CC(=O)NCCOCCOCCOCCOCCOCCOCCC(=O)NCCCCCCCNC(=O)CCNC(=O)c1nc(NC(=O)CCNC(=O)c3cc(NC(=O)c4nc(NC(=O)CCNC(=O)c5cc(NC(=O)c6nc(NC(=O)CCCN(C)C)cn6C)cn5C)cn4C)cn3C)cn1C)c1nnc(C)n1-2 | inactive | – | – | – | – | – | –
